In patent US5714494A, “Xanthines in the 7th position with a benzyl acetic acid moiety” (Bayer Aktiengesellschaft, priority 1995, dated 1998):

Key:
VLDL secretion [1] = experiment: Inhibition of VLDL secretion in vivo (rat) (Triton rat); conditions: Rattus norvegicus, po, 2 h; for inhibition in vivo at 3 mg/kg: 3 mg/kg p.o., (n.s.) for 112, 114, 117, 154, 175, 176, 227, read-out: Triton rat % TG inhibition (p.o.) 2 h after substance
Experimental: The action of the test substances on VLDL secretion is also investigated in the rat. To do this, 500 mg/kg of body weight (2.5 ml/kg) of Triton WR-1339, dissolved in physiological saline solution, are administered to rats intravenously in the tail vein. Triton WR-1339 inhibits lipoprotein lipase and thus leads through inhibition of VLDL catabolism to an increase in the triglyceride and cholesterol level. These increases can be used as a measure of the VLDL secretion rate.
Blood is taken from the animals before and one and two hours after administration of the detergent by puncture of the retroorbital venous plexus. The blood is incubated at room temperature for 1 h for clotting and the serum is recovered by centrifugation at 10,000 g for 20 s. The triglycerides are then determined photometrically at a wavelength of 540 nm by means of a commercially available coupled enzyme test (Sigma Diagnostics®, No. 339). Measurement is carried out with the aid of a likewise coupled enzyme test (Boehringer Mannheim®, No. 1442350) at a wavelength of 546 nm. Samples with triglyceride or cholesterol concentrations which exceed the measuring range of the methods are diluted with physiological saline solution. The respective serum concentrations are determined with the aid of standard series measured in parallel. Test substances are administered orally, intravenously or subcutaneously immediately after the Triton injection.

[2] = tested on: ApoB-100-associated lipoproteins; experiment: Inhibition of the release of ApoB-100-associated lipoproteins from HepG2 cells (immunoassay for human LDL); assay type: cell-based; conditions: light absorption 450 nm vs solvent control
Experimental: The test for detecting inhibition of the release of ApoB-100-associated lipoproteins from liver cells was carried out in vitro using cultured liver cells, preferably using cells of the human line HepG2. These cells are grown under standard conditions in medium for the culture of eucaryotic cells, preferably in RPMI 1640 using 10% foetal calf serum. HepG2 cells synthesize and secrete into the culture supernatant ApoB-100-associated lipoprotein particles which in principle are synthesized in a similar manner to the VLDL and LDL particles which are to be found in the plasma.
These particles can be detected using an immunoassay for human LDL. This immunoassay is carried out using antibodies which have been induced in the rabbit against human LDL under standard conditions. The anti-LDL antibodies (rabbit anti-LDL-Ab) were purified by affinity chromatography on an immunosorbent using human LDL. These purified rabbit anti-LDL Ab are adsorbed on the surface of plastic. Expediently, this adsorption is carried out on the plastic surface of microtitre plates having 96 wells, preferably on MaxiSorp plates. If ApoB-100-associated particles are present in the supernatant of Hep-G2 cells, these can bind to the insolubilized rabbit anti-LDL Ab, and an immune complex is formed which is bound to the plastic surface. Unbound proteins are removed by washing. The immune complex located on the plastic surface is detected using monoclonal antibodies which have been induced against human LDL according to standard conditions and purified. These antibodies were conjugated with the enzyme peroxidase. Peroxidase converts the colourless substrate TMB into a coloured product in the presence of H2 O2. After acidification of the reaction mixture using H2 SO4, the specific light absorption at 450 mn is determined, which is a measure of the amount of ApoB-100-associated particles which have been secreted into the culture supernatant by the HepG2 cells.
The IC50 value indicates at which substance concentration the light absorption is inhibited by 50% in comparison with the control (solvent control without substance).

[3] = tested on: intestinal triglyceride absorption; experiment: Inhibition of intestinal triglyceride absorption in vivo (rats); design: species or system male Wistar rats; conditions: po; for Absorption ED50 or % inhibition: 2 h; for ED50: Rattus norvegicus, serum triglyceride increase 2 h after triglyceride loading, fasting rats, read-out: Absorption ED50 or % inhibition
Experimental: The substances which are to be investigated for their triglyceride absorption-inhibiting action in vivo are administered orally to male Wistar rats having a body weight of between 170 and 230 g. For this purpose, the animals are divided into groups of 6 animals 18 hours before administration of the substance and the feed is then withdrawn from them. Drinking water is available to the animals ad libitum. The animals of the control groups receive an aqueous tragacanth suspension or a tragacanth suspension which contains olive oil. The tragacanth-olive oil suspension is prepared using an Ultra-Turrax. The substances to be investigated are suspended directly before substance administration in a corresponding tragacanth-olive oil suspension, also using an Ultra-Turrax.
Before stomach tube application, blood is taken from each rat by puncture of the retroorbital venous plexus to determine the basal serum triglyceride content. The tragacanth suspension, the tragacanth-olive oil suspensions without substance (control animals) and the substances suspended in a corresponding tragacanth-olive oil suspension are then administered to the fasting animals using a stomach tube. Further taking of blood for the determination of the postprandial serum triglyceride rise is carried out, as a rule, 1,2 and 3 hours after stomach tube application.
The blood samples are centrifuged and, after recovering the serum, the triglycerides are determined photometrically using an EPOS analyzer 5060 (Eppendorf Geratebau, Netheler & Hinz GmbH, Hamburg). The triglycerides are determined by fully enzymatic means using a commercially available UV test.
The postprandial serum triglyceride increase is determined by subtraction of the triglyceride preliminary value of each animal from its corresponding postprandial triglyceride concentrations (1,2 and 3 hours after administration).
The differences (in mmol/l) at each time 1, 2 and 3 hours) are averaged in the groups, and the average values of the serum triglyceride increase (ΔTG) of the substance-treated animals are compared with the animals which only received the tragacanth-oil suspension.
Likewise, the serum triglyceride course of the control animals which received only tragacanth is calculated. The substance effect at each time (1, 2 or 3 hours) is determined as follows and given in Δ% of the oil-loaded control. [formula]
Effect of 10 mg of test substance/kg of body weight p.o. on the triglyceride increase (Δ%) 2 h after a triglyceride loading in the serum of fasting rats. The serum triglyceride increase of fat-loaded control animals based on the serum triglyceride level of tragacanth control animals corresponds to 100%. n=6 animals per group.
Statistical assessment was carried out using student3 s t test after prior checking of the variances for homogeneity.

VLDL secretion [4] = experiment: Determination of VLDL secretion in vivo in the hamster (Triton hamster); design: species or system golden hamster; conditions: 6 mg/kg i.v.
Experimental: The effects of the test substances on VLDL secretion in vivo is investigated in the hamster. To do this, golden hamsters are anaesthetized with Ketavet (83 mg/kg s.c.) and Nembutal (50 mg/kg i.p.) after premedication with atropine ([…] s.c.). When the animals have become reflex-free, the jugular vein is exposed and cannulated. 0.25 ml/kg of a 20% strength solution of Triton WR 1339 in physiological saline solution is then administered. This detergent inhibits the lipoprotein lipase and thus leads to an increase in the triglyceride level as a result of lack of catabolism of secreted VLDL particles. This triglyceride increase can be used as a measure of the VLDL secretion rate. Blood is taken from the animals before and one and two hours after administration of the detergent by puncture of the retroorbital venous plexus. The blood is incubated for two hours at room temperature, then overnight at 4° C. in order to finish clotting completely. […] The triglyceride concentration in the serum thus obtained is determined with the aid of a modified commercially available enzyme test (Merckotest® triglyceride No. 14354). […] The optical density is then determined at a wavelength of 492 nm in an automatic plate-reading apparatus (SLT spectra). […] The triglyceride concentration contained in the samples is determined with the aid of a standard curve measured in parallel. […]

[5] = Homo sapiens, HepG2, HepG2 cells

SMILES | inhibition in vivo at 3 mg/kg (VLDL secretion [1]) [%] | inhibition in vivo at 5 mg/kg (VLDL secretion [1]; 5 mg/kg p.o., read-out: Triton rat % TG inhibition (p.o.) 2 h after substance) [%] | inhibition in vivo at 10 mg/kg (VLDL secretion [1]; 10 mg/kg p.o., read-out: Triton rat % TG inhibition (p.o.) 2 h after substance) [%] | IC50 ([2]; HepG2 cells) [nM] | Absorption ED50 or % inhibition [3] [mg/kg] | IC50 [2, 5] [nM] | Triton hamster % CH inhibition 2 h after substance (VLDL secretion [4]; cholesterol) [%] | Triton hamster % TG inhibition 2 h after substance (VLDL secretion [4]; triglycerides) [%] | ED50 [3] [mg/kg]
Cn1c(=O)c2c(nc(Cc3ccccc3)n2Cc2ccc(C(C(=O)N[C@@H](CO)c3ccccc3)C3CCCC3)cc2)n(C)c1=O (single isomer, unassigned) [Example 169] | 28 | 41 | 59.4 | 3 | 2 |  |  |  | 
Cn1c(=O)c2c(nc(CCc3ccccc3)n2Cc2ccc(C(C(=O)N[C@@H](CO)c3ccccc3)C3CCCC3)cc2)n(C)c1=O (stereo partly drawn) [Example 227, 2-(R&S)-Cyclopentyl-2-[4-(1,3-dimethyl-2,6-dioxo-8-(2-phenyl-ethyl)-1,2,3,6-tetra-hydro-purin-7-yl-methyl)phenyl]acet-N-[1-(R)-1-phenyl-2-hydroxy-ethyl)amide] | -8 |  |  |  | > 6 | 40 |  |  | 
Cn1c(=O)c2c(nc(-c3ccccc3)n2Cc2ccc(C(C(=O)N[C@@H](CO)c3ccccc3)C3CCCC3)cc2)n(C)c1=O (stereo partly drawn) [Example 129] |  |  |  |  |  | 34 | 25 | 25 | 20
Cn1c(=O)c2c(nc(-c3cccs3)n2Cc2ccc(C(C(=O)N[C@@H](CO)c3ccccc3)C3CCCC3)cc2)n(C)c1=O (stereo partly drawn) [Example 157] | 11.3 |  |  |  | > 2 | 8 |  |  | 
Cc1ccc(-c2nc3c(c(=O)n(C)c(=O)n3C)n2Cc2ccc(C(C(=O)N[C@@H](CO)c3ccccc3)C3CCCC3)cc2)cc1 (single isomer, unassigned) [Example 136] | 28 |  |  | 23 | 2 |  |  |  | 
Cc1ccc(-c2nc3c(c(=O)n(C)c(=O)n3C)n2Cc2ccc(C(C(=O)N[C@@H](CO)c3ccccc3)C3CCCC3)cc2)cc1 (stereo partly drawn) [Example 112] | 17 |  |  |  |  | 4 |  |  | 3
Cn1c(=O)c2c(nc(-c3ccsc3)n2Cc2ccc(C(C(=O)N[C@@H](CO)c3ccccc3)C3CCCC3)cc2)n(C)c1=O (stereo partly drawn) [Example 154] | -4 |  |  |  | < 2 | 3 |  |  | 
Cn1c(=O)c2c(nc(Br)n2Cc2ccc(C(C(=O)N[C@@H](CO)c3ccccc3)C3CCCC3)cc2)n(C)c1=O (single isomer, unassigned) [Example 117] | 25 |  |  | 3 |  |  |  |  | 3
